This note sets out measurements from ChEMBL document CHEMBL1128643, “Impact of polyamine analogues on the NMDA receptor” (1995).

For test [1], the species on record is Rattus norvegicus. Nature of the test: Compound was evaluated for agonist activity at 10 uM exhibiting moderate antagonism of [3H]MK-801 binding relative to 100% control. The format is functional. Also noted: unit: % of control.
For test [2], the species on record is Rattus norvegicus. Nature of the test: Compound was evaluated for agonist activity at 1 uM exhibiting moderate antagonism of [3H]MK-801 binding relative to 100% control. The format is functional. Also noted: unit: % of control.

Each structure is given as a SMILES string.

Consider `CCNCCCNCCCCNCCCNCC` [BIS(ETHYL)SPERMINE], for which the Activity in test [1] is recorded as 63.7; in test [2] it was 113.7.

Regarding `CC(C)(C)NCCCCNCCCCNCCCCNC(C)(C)C`, the figures for the Activity in test [1] and in test [2] were 33 and 106.5, respectively.

In the case of `CNCCCCNCCCCNCCCCNC`, the results for the Activity in test [1] and in test [2] were 76.3 and 117.8, respectively.

Turning to `NCCCNCCCCNCCCN` [SPERMINE], the Activity in test [2] turned out to be 123.2.

For `C(CCNCCCCN[C@]12C[C@H]3C[C@H](C[C@H](C3)C1)C2)CNCCCCNC12C[C@H]3C[C@@H](C1)C[C@@H](C2)C3.Cl`, the Activity amounted to 15 in test [1] and 101.9 in test [2].

For `CCNCCCCNCCCCNCCCCNCC` [DIETHYLHOMOSPERMINE], the Activity in test [1] stood at 53.9; in test [2], 114.3.

Turning to `CNCCCNCCCNCCCNC`, the Activity in test [1] was found to be 87.9; in test [2], 120.6.
